Laboratory results from patent publication US7326686B2, “Compounds and methods for regulating cell adhesion” (Adherex Inc., priority 1997, dated 2008).
Where no end group is shown, it is not given here.

Tests used:
[1] = tested on: Schwann cell migration on astrocytes; test: Micro-inverted-coverslip migration assay on astrocyte monolayers; assay type: cell-based, rat
Protocol: Schwann cell migration may generally be evaluated using a micro-inverted-coverslip assay. In this assay, a dense Schwann cell culture is established on coverslip fragments and Schwann cell migration away from the fragment edge is measured. Briefly, Schwann cells fluorescently labeled with Di-I may be plated on polylysine- and laminin-coated fragments of a glass coverslip and allowed to bind to the surface for 16-18 hours. Cells may then be washed (e.g., in Hanks medium) to remove non-attached cells, and then inverted, with cells facing downward onto an astrocyte-coated surface. Cultures are then incubated further for 2 days in the presence or absence of modulating agent (e.g., LRAHAVDING (SEQ ID NO: 21) at a concentration of 1 mg/mL) and fixed. The maximum migration distance from the edge of the coverslip fragment may then be measured. At a level of 1 mg/mL, modulating agent results in an increase or decrease in the maximum migration distance of at least 50%. This assay evaluates the effect of a modulating agent on N-cadherin mediated cell adhesion.
In order to assess the rates of Schwann cell migration on different surfaces, the micro-inverted-coverslip migration assay was employed. This is a variation of the technique first described by Fok-Seang et al., Dev. Biol. 171:1-15, 1995. Schwann cells fluorescently labeled with Di-I (25 μg/ml) were evenly plated onto polylysine and laminin coated fragments of glass coverslip (1×2 mm). After 16-18 hours, the pieces of glass coated with Di-I labeled Schwann cells were dipped into Hanks three times to remove any loosely attached cells and then inverted with cells facing downwards onto laminin-coated tissue culture surfaces or onto cell monolayers. These cultures were then incubated for a further two days and fixed for 20 minutes with 4% paraformaldehyde. The maximum migration distance was measured, and the number of cells in bands of 0.1 mm progressing outwards from the edge of the coverslip were counted.
In this assay, a dense Schwann cell culture is established on coverslip fragments and their migration away from its edge measured. The assay therefore measures the ability of Schwann cells to migrate on a surface, and their ability to migrate away from a confluent Schwann cell monolayer. The migration front of the foremost cells was measured, and the number of cells against distance of migration plotted. Schwann cell-laden fragments were placed on laminin to give a baseline migration rate on a favorable defined surface, and laminin controls were done for comparison on each assay.

[2] = tested on: Schwann cell-astrocyte adhesion; test: Schwann cell-astrocyte adhesion assay (Dil-labelled Schwann cells on astrocyte monolayer, shaking platform 30 min); assay type: cell-based, rat
Protocol: The effect of a modulating agent on Schwann cell adhesion to astrocytes may generally be evaluated using a cell adhesion assay. Briefly, Schwann cells fluorescently labeled with Di-I may be plated onto an astrocytic surface (e.g., a glass coverslip coated with a monolayer of astrocytes) and incubated on a shaking platform (e.g., 25 rpm for 30 minutes) in the presence and absence of modulating agent (e.g., LRAHAVDING (SEQ ID NO: 21) at a concentration of 1 mg/mL). Cells may then be washed (e.g., in Hanks medium) to remove non-attached cells. The attached cells may then be fixed and counted (e.g., using a fluorescent microscope). In general, 1 mg/mL of a modulating agent results in an increase or decrease in cell adhesion of at least 50%. This assay evaluates the effect of a modulating agent on N-cadherin mediated cell adhesion.
In order to test whether the migratory behavior of Schwann cells on different cell types was a function of adhesivity to the substratum, Dil-labeled Schwann cells were plated onto either astrocytic, fibroblasts, Schwann cell or laminin surfaces. 20,000 Dil-labeled Schwann cells were placed in a 15 mm diameter well in 0.5 ml of medium over a 13 mm glass coverslip coated with laminin, or a complete monolayer of astrocytes, fibroblasts or Schwann cells and then placed onto a shaking platform (25 rpm) for 30 minutes in an incubator. The coverslips were washed three times in Hanks after 30 minutes to remove any non-attached cells and the remainder were fixed for 20 minutes in 4% paraformaldehyde. The number of Dil-labeled Schwann cells that were attached to the coverslip were counted using a Leitz Diaplan fluorescent microscope under rhodamine optics.
In order to reduce extracellular calcium, DMEM was replaced by S-MEM (Joklik's modification; Gibco) with 0.2 mM calcium chloride added or the calcium buffer EGTA (Sigma) was employed. Adhesion assays in the absence of external calcium were performed using Schwann cells and astrocytes. Either a low calcium solution (S-MEM in place of DMEM with 0.2 mM calcium chloride) or a calcium buffer (EGTA in a normal DMEM medium) was used in these assays. […] EGTA concentrations less than 1.3 mM had little effect upon Schwann cell migration whereas those above 1.8 mM caused disruption of the astrocytic monolayer (data not shown). Adhesion of Schwann cells to astrocytes in the presence of the standard DMEM based medium was taken as the control and assigned the normalized value of 1.0±0.03. Low calcium solutions reduced intercellular adhesion to 0.47±0.09 and the addition of 1.6 mM EGTA to DMEM reduced adhesion to 0.39±0.05 (FIG. 10A). […]

[3] = peptide 1 mg/ml, adhesion in the absence of peptide = 1.0±0.05, mean±S.E.M.

O=C(O)CN(CCOCCOCCN(CC(=O)O)CC(=O)O)CC(=O)O [EGTA]
extent of Schwann cell migration upon astrocyte monolayers ([1]; EGTA 1.6 mM, control migration 0.25±0.03): 0.86 mm
concentrations causing disruption of the astrocytic monolayer ([1]; data not shown): above 1.8 mM
concentrations with little effect upon Schwann cell migration ([1]; data not shown): less than 1.3 mM
optimal concentration for Schwann cell migration ([1]; various concentrations of EGTA tested (data not shown)): 1.6 mM
Schwann cell-astrocyte adhesion, normalized ([2]; 1.6 mM EGTA added to DMEM, standard DMEM control = 1.0±0.03): 0.39±0.05

LRAHAVDING-NH2
Schwann cell-astrocyte adhesion, normalized [2, 3]: 0.38±0.07

LRAHGVDING-NH2
Schwann cell-astrocyte adhesion, normalized [2, 3]: 0.78±0.10

MRAHAVDING-NH2
Schwann cell-astrocyte adhesion, normalized [2, 3]: 0.39±0.04
